Source: ChEMBL document CHEMBL4613266, “Discovery and Structure Relationships of Salicylanilide Derivatives as Potent, Non-acidic P2X1 Receptor Antagonists” (J Med Chem, 2020)
Activity calls are given as the source filed them. The rule behind the calls is not given here.

Key:
Format in all cases: cell-based
[1] = molecular target: T1, P2X purinoceptor 3 (Homo sapiens) (UniProt P56373); assay: Antagonist activity at human P2X3 receptor expressed in human 1321N1 cells assessed as inhibition of ATP-induced cytosolic calcium influx at 10 uM preincubated for 30 mins followed by ATP addition by Fluo-4 AM dye-based fluorescence assay relative to control
T1 sequence (whole entry): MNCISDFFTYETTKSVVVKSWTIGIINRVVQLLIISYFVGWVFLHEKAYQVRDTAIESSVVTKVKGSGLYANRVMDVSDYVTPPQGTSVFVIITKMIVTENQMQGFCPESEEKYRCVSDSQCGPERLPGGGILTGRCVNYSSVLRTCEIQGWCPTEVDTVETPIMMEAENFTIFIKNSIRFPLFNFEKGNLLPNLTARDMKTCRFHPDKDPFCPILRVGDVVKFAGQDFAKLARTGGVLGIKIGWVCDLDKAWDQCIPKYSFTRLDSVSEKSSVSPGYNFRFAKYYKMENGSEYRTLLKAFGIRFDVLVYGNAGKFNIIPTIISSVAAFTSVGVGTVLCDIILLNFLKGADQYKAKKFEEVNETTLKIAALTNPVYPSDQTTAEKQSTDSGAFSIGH

[2] = molecular target: T2, P2X purinoceptor 1 (Homo sapiens) (UniProt P51575); assay: Antagonist activity P2X1 receptor in human platelets assessed as inhibition of ADP-induced platelet aggregation pre-incubated for 30 mins before ADP stimulation by aggregometry relative to control
T2 sequence (whole entry): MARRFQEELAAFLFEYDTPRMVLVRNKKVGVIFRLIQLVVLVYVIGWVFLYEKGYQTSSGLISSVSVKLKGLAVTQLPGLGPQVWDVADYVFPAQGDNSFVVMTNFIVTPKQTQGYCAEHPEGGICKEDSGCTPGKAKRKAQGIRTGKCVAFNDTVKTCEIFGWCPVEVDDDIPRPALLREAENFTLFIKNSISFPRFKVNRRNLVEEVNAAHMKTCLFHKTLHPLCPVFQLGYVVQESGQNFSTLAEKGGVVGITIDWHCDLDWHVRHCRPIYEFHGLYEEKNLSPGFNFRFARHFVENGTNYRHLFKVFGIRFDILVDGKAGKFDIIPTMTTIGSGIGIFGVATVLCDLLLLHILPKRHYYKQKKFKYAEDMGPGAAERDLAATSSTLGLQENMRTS

[3] = molecular target: T2, P2X purinoceptor 1 (Homo sapiens); assay: Antagonist activity P2X1 receptor in Apyrase pre-treated human platelets assessed as inhibition of TRAP6-induced platelet aggregation pre-incubated for 30 mins before TRAP6 stimulation by aggregometry relative to control
P2X purinoceptor 2 = molecular target: T3, P2X purinoceptor 2 (Homo sapiens, UniProt Q9UBL9); assay: Antagonist activity at human P2X2 receptor expressed in human 1321N1 cells assessed as inhibition of ATP-induced cytosolic calcium influx preincubated for 30 mins followed by ATP addition by Fluo-4 AM dye-based fluorescence assay
T3 sequence (Q9UBL9 whole entry): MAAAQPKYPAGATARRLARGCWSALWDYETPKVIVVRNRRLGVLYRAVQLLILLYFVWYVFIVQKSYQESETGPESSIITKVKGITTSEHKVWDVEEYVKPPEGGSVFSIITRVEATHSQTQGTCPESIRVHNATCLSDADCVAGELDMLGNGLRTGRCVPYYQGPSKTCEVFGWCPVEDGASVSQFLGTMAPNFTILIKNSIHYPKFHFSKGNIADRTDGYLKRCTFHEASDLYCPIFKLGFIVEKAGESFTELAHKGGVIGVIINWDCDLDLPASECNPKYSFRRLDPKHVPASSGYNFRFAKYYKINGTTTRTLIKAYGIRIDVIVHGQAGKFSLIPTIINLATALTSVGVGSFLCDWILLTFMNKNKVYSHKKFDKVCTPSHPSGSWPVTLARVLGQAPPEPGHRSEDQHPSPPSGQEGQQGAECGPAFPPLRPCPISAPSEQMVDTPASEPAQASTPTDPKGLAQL

[4] = molecular target: T2, P2X purinoceptor 1 (Homo sapiens); assay: Antagonist activity at non-desensitizing human P2X1 receptor ( P2X2/P2X1 chimera) expressed in human 1321N1 cells assessed as inhibition of ATP-induced calcium influx at 10 uM pre-incubated for 30 mins before ATP stimulation by FLIPR assay relative to control
P2X purinoceptor 7 = molecular target: T4, P2X purinoceptor 7 (Homo sapiens, UniProt Q99572); assay: Antagonist activity at human P2X7 receptor expressed in human 1321N1 cells assessed as inhibition of ATP-induced cytosolic calcium influx preincubated for 30 mins followed by ATP addition by Fluo-4 AM dye-based fluorescence assay
T4 sequence (Q99572 whole entry): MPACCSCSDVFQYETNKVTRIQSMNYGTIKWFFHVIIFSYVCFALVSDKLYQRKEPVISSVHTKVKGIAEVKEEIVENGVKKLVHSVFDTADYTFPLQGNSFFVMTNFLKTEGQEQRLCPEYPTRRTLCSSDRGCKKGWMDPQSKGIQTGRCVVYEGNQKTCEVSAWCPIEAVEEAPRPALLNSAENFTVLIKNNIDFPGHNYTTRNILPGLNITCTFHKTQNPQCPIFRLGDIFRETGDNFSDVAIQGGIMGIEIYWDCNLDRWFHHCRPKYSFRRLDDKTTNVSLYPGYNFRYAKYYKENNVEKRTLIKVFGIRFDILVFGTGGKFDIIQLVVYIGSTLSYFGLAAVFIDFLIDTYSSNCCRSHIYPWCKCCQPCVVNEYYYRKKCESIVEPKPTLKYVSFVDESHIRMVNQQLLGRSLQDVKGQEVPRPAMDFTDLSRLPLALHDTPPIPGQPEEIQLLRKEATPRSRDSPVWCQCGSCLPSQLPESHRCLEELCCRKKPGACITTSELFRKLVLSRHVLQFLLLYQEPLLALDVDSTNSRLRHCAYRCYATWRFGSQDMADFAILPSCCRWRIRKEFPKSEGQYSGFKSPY

[5] = molecular target: T2, P2X purinoceptor 1 (Homo sapiens); assay: Antagonist activity P2X1 receptor in Apyrase pre-treated human platelets assessed as inhibition of collagen-induced platelet aggregation pre-incubated for 30 mins before collagen stimulation by aggregometry relative to control
P2X purinoceptor 1 = P2X purinoceptor 1 (Homo sapiens, UniProt P51575); assay: (§1) Antagonist activity at non-desensitizing human P2X1 receptor ( P2X2/P2X1 chimera) expressed in human 1321N1 cells assessed as inhibition of ATP-induced calcium influx pre-incubated for 30 mins before ATP stimulation by FLIPR assay relative to control
P2X purinoceptor 3 = molecular target: T5, P2X purinoceptor 3 (Homo sapiens, UniProt P56373); assay: Antagonist activity at human P2X3 receptor expressed in human 1321N1 cells assessed as inhibition of ATP-induced cytosolic calcium influx preincubated for 30 mins followed by ATP addition by Fluo-4 AM dye-based fluorescence assay
T5 sequence (P56373 whole entry): T1 sequence (whole entry)

[6] = molecular target: T6, P2X purinoceptor 2 (Homo sapiens) (UniProt Q9UBL9); assay: Antagonist activity at human P2X2 receptor expressed in human 1321N1 cells assessed as inhibition of ATP-induced cytosolic calcium influx at 10 uM preincubated for 30 mins followed by ATP addition by Fluo-4 AM dye-based fluorescence assay relative to control
T6 sequence (whole entry): T3 sequence (Q9UBL9 whole entry)

P2X purinoceptor 4 = molecular target: T7, P2X purinoceptor 4 (Homo sapiens, UniProt Q99571); assay: Antagonist activity at human P2X4 receptor expressed in human 1321N1 cells assessed as inhibition of ATP-induced cytosolic calcium influx preincubated for 30 mins followed by ATP addition by Fluo-4 AM dye-based fluorescence assay
T7 sequence (Q99571 whole entry): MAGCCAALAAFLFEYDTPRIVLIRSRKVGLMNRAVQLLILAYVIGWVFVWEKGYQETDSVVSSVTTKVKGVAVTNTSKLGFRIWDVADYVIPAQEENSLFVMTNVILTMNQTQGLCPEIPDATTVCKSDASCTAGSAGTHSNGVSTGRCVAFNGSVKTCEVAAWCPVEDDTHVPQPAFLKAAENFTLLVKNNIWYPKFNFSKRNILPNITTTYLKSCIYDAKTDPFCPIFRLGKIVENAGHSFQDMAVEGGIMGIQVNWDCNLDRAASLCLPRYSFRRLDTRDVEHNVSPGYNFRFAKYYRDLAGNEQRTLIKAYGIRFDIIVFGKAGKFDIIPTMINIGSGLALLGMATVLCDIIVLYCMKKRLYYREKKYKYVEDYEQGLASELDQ

[7] = molecular target: T8, P2X purinoceptor 4 (Homo sapiens) (UniProt Q99571); assay: Antagonist activity at human P2X4 receptor expressed in human 1321N1 cells assessed as inhibition of ATP-induced cytosolic calcium influx at 10 uM preincubated for 30 mins followed by ATP addition by Fluo-4 AM dye-based fluorescence assay relative to control
T8 sequence (whole entry): T7 sequence (Q99571 whole entry)

[8] = molecular target: T2, P2X purinoceptor 1 (Homo sapiens); assay: as §1, with “Negative allosteric modulator” for “Antagonist”, “of maximal response for” for “of”, “influx at 100 to 500 nM” for “influx”
[9] = molecular target: T2, P2X purinoceptor 1 (Homo sapiens); assay: Antagonist activity at non-desensitizing human P2X1 receptor ( P2X2/P2X1 chimera) expressed in human 1321N1 cells assessed as inhibition of ATP-induced calcium influx at 1 uM pre-incubated for 30 mins before ATP stimulation by FLIPR assay relative to control
[10] = molecular target: T2, P2X purinoceptor 1 (Homo sapiens); assay: as §1

Structure (SMILES)	inhibition [1] [%]	inhibition [2] [%]	inhibition [3] [%]	IC50 (P2X purinoceptor 2) [nM]	inhibition [4] [%]	IC50 (P2X purinoceptor 7) [nM]	inhibition [5] [%]	IC50 (P2X purinoceptor 1) [nM]	IC50 (P2X purinoceptor 3) [nM]	inhibition [6] [%]	IC50 (P2X purinoceptor 4) [nM]	inhibition [7] [%]	inhibition [8]	inhibition [9] [%]	inhibition [10]
O=C(Nc1cc(F)cc(F)c1)c1cc(Cl)ccc1O	2	14	5	> 10000	62	160	47	50.5	> 10000	4	155				
O=C(Nc1cc(C(F)(F)F)cc(C(F)(F)F)c1)c1cccc(F)c1O	38			> 10000	80	857		70.6	> 10000		≥ 10000	49	Active		
O=C(Nc1cc(C(F)(F)F)cc(C(F)(F)F)c1)c1cc(Cl)ccc1O [IMD-0354]	11			> 10000	> 75	175		19.2	> 10000	-7	156		Active	> 40	Dose-dependent effect
